System: 15 base pair dsDNA, double labeled (Alexa488 / Alexa568) (DNA, duplex) GGAGACCAGAGGCCT/AGGCCTCTGGTCTCC
Assay: FRET and fluorescence lifetime titration (donor 517 nm, acceptor 600 nm)
Conditions: 20 °C; 1 μM DNA; intercalation, qualitative; end-to-end distance ratio r1/r0 1.028; buffer not stated

With [Ru+2].c1ccc(-c2ccccn2)nc1.c1ccc(-c2ccccn2)nc1.c1ccc2nc3c4cccnc4c4ncccc4c3nc2c1 the binding was “yes”.

— PMC4399336 (2015)
